According to patent US20150105252A1, “SUBSTITUTED PYRAZOLES AS HERBICIDES” (E I DU PONT DE NEMOURS AND COMPANY, priority 2013, published 2015):

Columns and labels:
chickweed = experiment: Test C postemergence; type: in vivo, Stellaria media
Procedure, shortened: (§1)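 Visual control ratings on a 0–100 scale (100 = complete control) made against untreated controls after 13 to 15 days in greenhouse. Compounds applied in surfactant-containing solvent mixture, either preemergence to loam/sand-sown seeds or postemergence to 1- to 4-leaf plants (2–18 cm) in peat medium.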

blackgrass = experiment: Test C postemergence; type: in vivo, Alopecurus myosuroides
Procedure, shortened: as §1

galium = experiment: Test C postemergence; type: in vivo, Galium aparine
Procedure, shortened: as §1

wheat = experiment: Test C postemergence; type: in vivo, Triticum aestivum
Procedure, shortened: as §1

lambsquarters = experiment: Test C preemergence; type: in vivo, Chenopodium album
Procedure, shortened: as §1

crabgrass, large = experiment: Test C postemergence; type: in vivo, Digitaria sanguinalis
Procedure, shortened: as §1

corn = experiment: Test C postemergence; type: in vivo, Zea mays
Procedure, shortened: as §1

waterhemp = experiment: Test C postemergence; type: in vivo, Amaranthus rudis
Procedure, shortened: as §1

ryegrass, Italian = experiment: Test C postemergence; type: in vivo, Lolium multiflorum
Procedure, shortened: as §1

ragweed = experiment: Test C postemergence; type: in vivo, Ambrosia elation
Procedure, shortened: as §1

soybean = experiment: Test C postemergence; type: in vivo, Glycine max
Procedure, shortened: as §1

barnyardgrass = experiment: Test C postemergence; type: in vivo, Echinochloa crus-galli
Procedure, shortened: as §1

morningglory = experiment: Test C postemergence; type: in vivo, Ipomoea coccinea
Procedure, shortened: as §1

foxtail, giant = experiment: Test C postemergence; type: in vivo, Setaria faberii
Procedure, shortened: as §1

[1] = Postemergence, 31 g ai/ha, visually evaluated after 13 to 15 days
[2] = postemergence, 62 g ai/ha, scale 0 to 100
[3] = postemergence, 250 g ai/ha, scale 0 to 100 (0 no effect, 100 complete control)
[4] = postemergence, 125 g ai/ha, scale 0 to 100, 0 no effect, 100 complete control

## CCc1cc(C(=O)NC2CC2)nn1Cc1ccnc(OC(F)F)c1 [Compound 98]
chickweed; [1]
  Plant response rating (scale of 0 to 100 where 0 is no effect and 100 is complete control), Chickweed: 100
chickweed; [2]
  Chickweed plant response rating: 100
chickweed; [3]
  Plant response rating, Chickweed: 100
chickweed; [4]
  Plant response rating, Chickweed: 100
blackgrass; [1]
  Plant response rating (scale of 0 to 100 where 0 is no effect and 100 is complete control), Blackgrass: 5
blackgrass; [2]
  Blackgrass plant response rating: 5
blackgrass; [3]
  Plant response rating, Blackgrass: 40
blackgrass; [4]
  Plant response rating, Blackgrass: 25
galium; [1]
  Plant response rating (scale of 0 to 100 where 0 is no effect and 100 is complete control), Galium: 50
galium; [2]
  Galium plant response rating: 55
galium; [3]
  Plant response rating, Galium: 90
galium; [4]
  Plant response rating, Galium: 65
wheat; [1]
  Plant response rating (scale of 0 to 100 where 0 is no effect and 100 is complete control), Wheat: 5
wheat; [2]
  Wheat plant response rating: 5
wheat; [3]
  Plant response rating, Wheat: 20
wheat; [4]
  Plant response rating, Wheat: 5
lambsquarters; Preemergence, 250 g ai/ha
  Plant response rating (scale of 0 to 100), Lambsquarters: 100
lambsquarters; preemergence, 31 g ai/ha, visual rating, scale 0 to 100 (0 no effect, 100 complete control), 13 to 15 days
  Lambsquarters plant response rating: 100
lambsquarters; preemergence, 62 g ai/ha, 13 to 15 days, scale 0 to 100, 0 = no effect, 100 = complete control
  Plant response rating, Lambsquarters: 100
lambsquarters; preemergence, 125 g ai/ha, scale 0 to 100, 0 is no effect, 100 is complete control
  Lambsquarters plant response rating: 100
crabgrass, large; [1]
  Plant response rating (scale of 0 to 100 where 0 is no effect and 100 is complete control), Crabgrass, Large: 10
crabgrass, large; [2]
  Crabgrass, Large plant response rating: 15
crabgrass, large; [3]
  Plant response rating, Crabgrass, Large: 50
crabgrass, large; [4]
  Plant response rating, Crabgrass, Large: 45
corn; [1]
  Plant response rating (scale of 0 to 100 where 0 is no effect and 100 is complete control), Corn: 5
corn; [2]
  Corn plant response rating: 5
corn; [3]
  Plant response rating, Corn: 10
corn; [4]
  Plant response rating, Corn: 5
waterhemp; [1]
  Plant response rating (scale of 0 to 100 where 0 is no effect and 100 is complete control), Waterhemp: 10
waterhemp; [2]
  Waterhemp plant response rating: 45
waterhemp; [3]
  Plant response rating, Waterhemp: 90
waterhemp; [4]
  Plant response rating, Waterhemp: 85
ryegrass, Italian; [1]
  Plant response rating (scale of 0 to 100 where 0 is no effect and 100 is complete control), Ryegrass, Italian: 5
ryegrass, Italian; [2]
  Ryegrass, Italian plant response rating: 10
ryegrass, Italian; [3]
  Plant response rating, Ryegrass, Italian: 10
ryegrass, Italian; [4]
  Plant response rating, Ryegrass, Italian: 10
ragweed; [1]
  Plant response rating (scale of 0 to 100 where 0 is no effect and 100 is complete control), Ragweed: 15
ragweed; [2]
  Ragweed plant response rating: 35
ragweed; [3]
  Plant response rating, Ragweed: 75
ragweed; [4]
  Plant response rating, Ragweed: 75
soybean; [1]
  Plant response rating (scale of 0 to 100 where 0 is no effect and 100 is complete control), Soybean: 70
soybean; [2]
  Soybean plant response rating: 70
soybean; [3]
  Plant response rating, Soybean: 85
soybean; [4]
  Plant response rating, Soybean: 85
barnyardgrass; [1]
  Plant response rating (scale of 0 to 100 where 0 is no effect and 100 is complete control), Barnyardgrass: 0
barnyardgrass; [2]
  Barnyardgrass plant response rating: 0
barnyardgrass; [3]
  Plant response rating, Barnyardgrass: 35
barnyardgrass; [4]
  Plant response rating, Barnyardgrass: 5
morningglory; [1]
  Plant response rating (scale of 0 to 100 where 0 is no effect and 100 is complete control), Morningglory: 45
morningglory; [2]
  Morningglory plant response rating: 50
morningglory; [3]
  Plant response rating, Morningglory: 90
morningglory; [4]
  Plant response rating, Morningglory: 70
foxtail, giant; [1]
  Plant response rating (scale of 0 to 100 where 0 is no effect and 100 is complete control), Foxtail, Giant: 45
foxtail, giant; [2]
  Foxtail, Giant plant response rating: 50
foxtail, giant; [3]
  Plant response rating, Foxtail, Giant: 85
foxtail, giant; [4]
  Plant response rating, Foxtail, Giant: 55
